From patent publication US12606572B2, “Substituted heterocycles and uses thereof” (Kumquat Biosciences Inc., priority 2023, dated 2026)

Legend:
KRAS WT = biological target: T1, KRAS WT (Homo sapiens, UniProt P01116); test: HTRF assay, interaction of GST-tagged K-Ras with His-tagged hSOS1 (KRAS wildtype); format: biochemical; details: <500 nM, read-out: Inhibition of KRAS WT (IC50)
T1 construct: made in house; host or cells: E. coli BL21 (DE3)
Procedure, shortened: (§1)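 GST-K-Ras (G12S or WT) with anti-GST-Eu donor mixed with His-hSOS1 and anti-6His-XL665 acceptor in ~5 mM HEPES pH 7.4, 150 mM NaCl, 1 mM DTT, 0.05% BSA, 0.0025% Igepal. After ~10 min or longer, HTRF 665/620 nm ratio read.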

KRAS G12S = biological target: T2, KRAS G12S (Homo sapiens, UniProt P01116, G12S); test: HTRF assay, interaction of GST-tagged K-Ras with His-tagged hSOS1 (KRAS G12S); format: biochemical; details: <500 nM, read-out: Inhibition of KRAS G12S (IC50)
T2 construct: made in house; host or cells: E. coli BL21 (DE3)
T2 sequence (P01116 1-188 isoform P01116-2 G12S): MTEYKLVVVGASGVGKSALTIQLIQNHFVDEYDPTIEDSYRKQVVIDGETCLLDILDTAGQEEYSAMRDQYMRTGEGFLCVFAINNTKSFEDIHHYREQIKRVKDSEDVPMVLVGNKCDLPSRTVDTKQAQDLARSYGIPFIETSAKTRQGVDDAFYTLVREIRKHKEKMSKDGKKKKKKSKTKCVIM
Procedure, shortened: as §1

T1 sequence (P01116 1-188 isoform P01116-2): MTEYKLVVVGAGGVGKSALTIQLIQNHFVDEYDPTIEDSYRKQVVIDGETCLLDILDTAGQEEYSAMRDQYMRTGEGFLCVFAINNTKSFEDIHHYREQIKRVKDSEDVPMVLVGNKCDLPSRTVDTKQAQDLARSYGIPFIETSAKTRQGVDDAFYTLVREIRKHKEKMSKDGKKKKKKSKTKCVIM

IC50 (KRAS WT) | IC50 (KRAS G12S) | SMILES
< 500 nM | < 500 nM | N#CCC1([C@@H]2[C@H](CN3CCOc4c(Cl)c(-c5ccc(F)c6sc(N)c(C#N)c56)c(F)c5nc(OC[C@@]67CCCN6C[C@H](F)C7)nc3c45)CN2C(=O)n2ccnc2)CC1 [Compound 442, 2-amino-4-(8-chloro-4-(((2S,3R)-2-(1-(cyanomethyl)cyclopropyl)-1-(1H-imidazole-1-carbonyl)azetidin-3-yl)methyl)-10-fluoro-2-(((2R,7aS)-2-fluorotetrahydro-1H-pyrrolizin-7a(5H)-yl)methoxy)-5,6-dihydro-4H-[1,4]oxazepino [5,6,7-de]quinazolin-9-yl)-7-fluorobenzo[b]thiophene-3-carbonitrile]
< 500 nM | < 500 nM | C/C(C#N)=C\C(=O)N1CC(CN2CCOc3c(Cl)c(-c4ccc(F)c5sc(N)c(C#N)c45)c(F)c4nc(OC[C@@]56CCCN5C[C@H](F)C6)nc2c34)C1 [Compound 439, 2-amino-4-(8-chloro-4-((1-((E)-3-cyanobut-2-enoyl)azetidin-3-yl)methyl)-10-fluoro-2-(((2R,7aS)-2-fluorotetrahydro-1H-pyrrolizin-7a(5H)-yl)methoxy)-5,6-dihydro-4H-[1,4]oxazepino[5,6,7-de]quinazolin-9-yl)-7-fluorobenzo [b]thiophene-3-carbonitrile]
< 500 nM | < 500 nM | N#Cc1c(N)sc2c(F)ccc(-c3c(Cl)c4c5c(nc(OC[C@@]67CCCN6C[C@H](F)C7)nc5c3F)N(CC3CN(C(=O)/C=C/C5CC5)C3)CCO4)c12 [Compound 418, 2-amino-4-(8-chloro-4-((1-((E)-3-cyclopropylacryloyl)azetidin-3-yl)methyl)-10-fluoro-2-(((2R,7aS)-2-fluorotetrahydro-1H-pyrrolizin-7a(5H)-yl)methoxy)-5,6-dihydro-4H-[1,4]oxazepino [5,6,7-de]quinazolin-9-yl)-7-fluorobenzo[b]thiophene-3-carbonitrile]
< 500 nM | < 500 nM | C[C@@H]1[C@H](N2CCOc3c(Cl)c(-c4ccc(F)c5sc(N)c(C#N)c45)c(F)c4nc(OC[C@@]56CCCN5C[C@H](F)C6)nc2c34)CCN1C(=O)n1ccnc1 (single isomer, unassigned) [Compound 474]
< 500 nM | < 500 nM | C[C@H](O)[C@H]1COc2c(Cl)c(-c3ccc(F)c4sc(N)c(C#N)c34)c(F)c3nc(OC[C@@]45CCCN4C[C@H](F)C5)nc(c23)N1C1CC(N(C)C(=O)n2ccnc2)C1 (stereo partly drawn) [Compound 428, N-(3-((5R)-9-(2-amino-3-cyano-7-fluorobenzo[b]thiophen-4-yl)-8-chloro-10-fluoro-2-(((2R,7aS)-2-fluorotetrahydro-1H-pyrrolizin-7a(5H)-yl)methoxy)-5-((S)-1-hydroxyethyl)-5,6-dihydro-4H-[1,4]oxazepino [5,6,7-de]quinazolin-4-yl)cyclobutyl)-N-methyl-1H-imidazole-1-carboxamide]
< 500 nM | < 500 nM | CC(C)[C@@H]1[C@@H](CN2c3nc(OC[C@@]45CCCN4C[C@H](F)C5)nc4c(F)c(-c5ccc(F)c6sc(N)c(C#N)c56)c(Cl)c(c34)OC[C@@H]2[C@H](C)O)CN1C(=O)n1ccnc1 (single isomer, unassigned) [Compound 410]
< 500 nM | < 500 nM | C[C@@H]1CCOc2c(Cl)c(-c3ccc(F)c4sc(N)c(C#N)c34)c(F)c3nc(OC[C@@]45CCCN4C[C@H](F)C5)nc(c23)N1CC1CCCN1C(=O)n1ccnc1 (stereo partly drawn) [Compound 414, 4-((5R)-4-((1-(1H-imidazole-1-carbonyl)pyrrolidin-2-yl)methyl)-9-chloro-11-fluoro-2-(((2R,7aS)-2-fluorotetrahydro-1H-pyrrolizin-7a(5H)-yl)methoxy)-5-methyl-4,5,6,7-tetrahydro-[1,5]oxazocino[4,3,2-de]quinazolin-10-yl)-2-amino-7-fluorobenzo[b]thiophene-3-carbonitrile]
